Test system: RAW264.7
Test: Antiinflammatory activity in mouse RAW264.7 cells assessed as inhibition of LPS-induced NO production compound pretreated for 1 hr followed by addition of 100 ng/ml LPS for 24 hrs by griess method
Format: functional, cell-based

Row | IC50 | Structure (SMILES) | inhibition
1 | 73.3 µM | CNC(=N)NCCC[C@H](N)C(=O)O [TILARGININE] | –
2 | > 50 µM | COC(=O)c1c(O)c2ccccc2c2nc(C)ccc12 | –
3 | > 50 µM | COC(=O)c1c(O)c2ccccc2c2ncccc12 | –
4 | 0.34 µM | COC(=O)C1=C2C=CC(C)(C)N=C2c2ccccc2C1=O | Dose-dependent effect
5 | 1.3 µM | COC(=O)C1=C2C=CC(C)(C)OC2(O)c2ccccc2C1=O (stereo unspecified) | –

From ChEMBL document CHEMBL3745666, “Syntheses and anti-inflammatory activity of azamollugin derivatives” (Bioorg Med Chem Lett, 2016)
